Measurements taken from ChEMBL document CHEMBL5247660, “The lipidation and glycosylation enabling bioactivity enhancement and structural change of antibacterial peptide G3” (Bioorg Med Chem Lett, 2023).
≈ marks a conversion by molar mass, not a printed value. Calls of active or inactive are those of the source. The rule behind the calls is not given here. Residues, ends and D or L forms follow the SMILES beside them. *: point of attachment. βGlc = OC[C@H]1O[C@@H](*)[C@H](O)[C@@H](O)[C@@H]1O; βGal = OC[C@H]1O[C@@H](*)[C@H](O)[C@@H](O)[C@H]1O; Palmitoyl = CCCCCCCCCCCCCCCC(=O)*; Lauroyl = CCCCCCCCCCCC(=O)*; Octanoyl = CCCCCCCC(=O)*

Legend:
Pseudomonas aeruginosa [1] = assay: Antibacterial activity against Pseudomonas aeruginosa assessed as bacterial growth inhibition; assay type: functional
Escherichia coli = assay: Antibacterial activity against Escherichia coli assessed as bacterial growth inhibition; assay type: functional
Staphylococcus aureus [2] = assay: Antibacterial activity against Staphylococcus aureus assessed as bacterial growth inhibition; assay type: functional
Staphylococcus aureus [3] = assay: Antibacterial activity against methicillin-resistant Staphylococcus aureus assessed as bacterial growth inhibition; assay type: functional
[4] = molecular target: T1, PA-I galactophilic lectin (Pseudomonas aeruginosa (strain ATCC 15692 / PAO1 / 1C / PRS 101 / LMG12228)) (UniProt Q05097); assay: Binding affinity to Pseudomonas aeruginosa LecA assessed as change in enthalpy
T1 sequence (whole entry): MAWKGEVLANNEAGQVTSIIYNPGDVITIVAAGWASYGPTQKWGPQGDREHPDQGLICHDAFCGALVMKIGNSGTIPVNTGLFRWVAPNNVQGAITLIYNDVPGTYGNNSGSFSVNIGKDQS

[5] = molecular target: T1, PA-I galactophilic lectin (Pseudomonas aeruginosa (strain ATCC 15692 / PAO1 / 1C / PRS 101 / LMG12228)); assay: Binding affinity to Pseudomonas aeruginosa LecA assessed as change in entropy
[6] = molecular target: T2, PA-I galactophilic lectin (Pseudomonas aeruginosa (strain ATCC 15692 / PAO1 / 1C / PRS 101 / LMG12228), UniProt Q05097); assay: Binding affinity to Pseudomonas aeruginosa LecA assessed as dissociation constant
T2 sequence (Q05097 whole entry): T1 sequence (whole entry)

Pseudomonas aeruginosa [7] = assay: Antibiofilm activity against Pseudomonas aeruginosa PAO1 assessed as inhibition of biofilm formation at 8 to 32 uM incubated for 24 hrs by microplate reader analysis relative to control; assay type: functional; settings: dose 8-32 µM, read-out: MIC
Pseudomonas aeruginosa [8] = assay: Antibiofilm activity against Pseudomonas aeruginosa PAO1 assessed as inhibition of biofilm formation at 32 uM incubated for 24 hrs by microplate reader analysis relative to control; assay type: functional
Pseudomonas aeruginosa [9] = assay: Antibiofilm activity against Pseudomonas aeruginosa PAO1; assay type: functional, organism-based
Pseudomonas aeruginosa [10] = assay: Antibiofilm activity against Pseudomonas aeruginosa PAO1 assessed as removal of mature biofilm at 32 uM incubated for 4 hrs at relative to control; assay type: functional
Cell membrane = assay: Induction of outer membrane permeabilization in Pseudomonas aeruginosa PAO1 assessed as increase in NPN uptake at 8 to 32 uM by NPN-dye based fluorescence analysis; settings: dose 8-32 µM
[11] = Hemolytic activity in sheep RBC assessed as hemolysis at 128 uM; assay type: toxicity, cell-based, Ovis aries; settings: erythrocyte
Pseudomonas aeruginosa [12] = assay: Antibiofilm activity against Pseudomonas aeruginosa PAO1 assessed as inhibition of biofilm formation ratio at MIC concentration incubated for 24 hrs by microplate reader analysis relative to control; assay type: functional; parameters: scale not given: the % may be the effect or the level left
Pseudomonas aeruginosa [13] = assay: Antibiofilm activity against Pseudomonas aeruginosa PAO1 assessed as inhibition of biofilm formation ratio at 2 times of MIC concentration incubated for 24 hrs by microplate reader analysis relative to control; assay type: functional; parameters: scale not given: the % may be the effect or the level left
[14] = Hemolytic activity in sheep RBC assessed as hemolysis; assay type: toxicity, cell-based, Ovis aries; settings: erythrocyte
Pseudomonas aeruginosa [15] = assay: Antibiofilm activity against Pseudomonas aeruginosa PAO1 assessed as increase in biofilm inhibition ratio at half MIC concentration incubated for 24 hrs by microplate reader analysis relative to control; assay type: functional; parameters: scale not given: the % may be the effect or the level left
Pseudomonas aeruginosa [16] = assay: Antibiofilm activity against Pseudomonas aeruginosa PAO1 assessed as increase in biofilm inhibition ratio at MIC concentration incubated for 24 hrs by microplate reader analysis relative to control; assay type: functional; parameters: scale not given: the % may be the effect or the level left
Pseudomonas aeruginosa [17] = assay: Antibiofilm activity against Pseudomonas aeruginosa PAO1 assessed as increase in biofilm inhibition ratio at 2 times of MIC concentration incubated for 24 hrs by microplate reader analysis relative to control; assay type: functional; parameters: scale not given: the % may be the effect or the level left

| Molecule | MIC (Pseudomonas aeruginosa [1]) [µM] | MIC (Escherichia coli) [µM] | MIC (Staphylococcus aureus [2]) [µM] | MIC (Staphylococcus aureus [3]) [µM] | deltaH [4] [kJ/mol] | deltaS [5] [J/mol/K] | Kd [6] [µM] | Minimum biofilm inhibitory concentration (Pseudomonas aeruginosa [7]) [µM] | MIC (Pseudomonas aeruginosa [8]) [µM] | Activity (Pseudomonas aeruginosa [9]) | Activity (Pseudomonas aeruginosa [10]) [%] | Activity (Cell membrane) | Activity [11] | Activity (Pseudomonas aeruginosa [12]) [%] | Activity (Pseudomonas aeruginosa [13]) [%] | Activity [14] | Activity (Pseudomonas aeruginosa [15]) [%] | Activity (Pseudomonas aeruginosa [16]) [%] | Activity (Pseudomonas aeruginosa [17]) [%] |
| --- | --- | --- | --- | --- | --- | --- | --- | --- | --- | --- | --- | --- | --- | --- | --- | --- | --- | --- | --- |
| CC[C@H](C)[C@H](NC(=O)CN)C(=O)N[C@H](C(=O)N[C@@H](CCCCN)C(=O)N[C@@H](CCCCN)C(=O)N[C@H](C(=O)N[C@H](C(=O)N[C@@H](CCCCN)C(=O)N[C@@H](CCCCN)C(=O)N[C@H](C(=O)N[C@H](C(=O)N[C@@H](CCCCN)C(=O)N[C@@H](CCCCN)C(=O)N[C@H](C(=O)N[C@@H](CO[C@@H]1O[C@H](CO)[C@H](O)[C@H](O)[C@H]1O)C(N)=O)[C@@H](C)CC)[C@@H](C)CC)[C@@H](C)CC)[C@@H](C)CC)[C@@H](C)CC)[C@@H](C)CC (H-GIIKKIIKKIIKKIS(βGal)-NH2) | 16 (≈ 30.2 µg/mL) | 32 (≈ 60.3 µg/mL) | 16 (≈ 30.2 µg/mL) | 32 (≈ 60.3 µg/mL) | -100 | -246 | 21.1 | 16 | 32 (≈ 60.3 µg/mL) | Active | 62 | Active | – | – | – | – | – | – | – |
| CC[C@H](C)[C@H](NC(=O)CN)C(=O)N[C@H](C(=O)N[C@@H](CCCCN)C(=O)N[C@@H](CCCCN)C(=O)N[C@H](C(=O)N[C@H](C(=O)N[C@@H](CCCCN)C(=O)N[C@@H](CCCCN)C(=O)N[C@H](C(=O)N[C@H](C(=O)N[C@@H](CCCCN)C(=O)N[C@@H](CCCCN)C(=O)N[C@H](C(=O)N[C@@H](CO[C@@H]1O[C@H](CO)[C@@H](O)[C@H](O)[C@H]1O)C(N)=O)[C@@H](C)CC)[C@@H](C)CC)[C@@H](C)CC)[C@@H](C)CC)[C@@H](C)CC)[C@@H](C)CC (H-GIIKKIIKKIIKKIS(βGlc)-NH2) | 16 (≈ 30.2 µg/mL) | 32 (≈ 60.3 µg/mL) | 16 (≈ 30.2 µg/mL) | 32 (≈ 60.3 µg/mL) | – | – | – | 16 | – | Active | 71 | Active | – | – | – | – | – | – | – |
| CCCCCCCCCCCC(=O)NCC(=O)N[C@H](C(=O)N[C@H](C(=O)N[C@@H](CCCCN)C(=O)N[C@@H](CCCCN)C(=O)N[C@H](C(=O)N[C@H](C(=O)N[C@@H](CCCCN)C(=O)N[C@@H](CCCCN)C(=O)N[C@H](C(=O)N[C@H](C(=O)N[C@@H](CCCCN)C(=O)N[C@@H](CCCCN)C(=O)N[C@H](C(N)=O)[C@@H](C)CC)[C@@H](C)CC)[C@@H](C)CC)[C@@H](C)CC)[C@@H](C)CC)[C@@H](C)CC)[C@@H](C)CC (Lauroyl-GIIKKIIKKIIKKI-NH2) | 16 (≈ 29.1 µg/mL) | 12 (≈ 21.8 µg/mL) | 4 (≈ 7.27 µg/mL) | 12 (≈ 21.8 µg/mL) | – | – | – | 16 | – | – | – | Active | – | – | – | – | – | – | – |
| CCCCCCCC(=O)NCC(=O)N[C@H](C(=O)N[C@H](C(=O)N[C@@H](CCCCN)C(=O)N[C@@H](CCCCN)C(=O)N[C@H](C(=O)N[C@H](C(=O)N[C@@H](CCCCN)C(=O)N[C@@H](CCCCN)C(=O)N[C@H](C(=O)N[C@H](C(=O)N[C@@H](CCCCN)C(=O)N[C@@H](CCCCN)C(=O)N[C@H](C(N)=O)[C@@H](C)CC)[C@@H](C)CC)[C@@H](C)CC)[C@@H](C)CC)[C@@H](C)CC)[C@@H](C)CC)[C@@H](C)CC (Octanoyl-GIIKKIIKKIIKKI-NH2) | 16 (≈ 28.2 µg/mL) | 4 (≈ 7.05 µg/mL) | 4 (≈ 7.05 µg/mL) | 4 (≈ 7.05 µg/mL) | – | – | – | 16 | – | – | – | Active | Toxic | – | – | – | – | – | – |
| CCCCCCCC(=O)NCC(=O)N[C@H](C(=O)N[C@H](C(=O)N[C@@H](CCCCN)C(=O)N[C@@H](CCCCN)C(=O)N[C@H](C(=O)N[C@H](C(=O)N[C@@H](CCCCN)C(=O)N[C@@H](CCCCN)C(=O)N[C@H](C(=O)N[C@H](C(=O)N[C@@H](CCCCN)C(=O)N[C@@H](CCCCN)C(=O)N[C@H](C(=O)N[C@@H](CO[C@@H]1O[C@H](CO)[C@H](O)[C@H](O)[C@H]1O)C(N)=O)[C@@H](C)CC)[C@@H](C)CC)[C@@H](C)CC)[C@@H](C)CC)[C@@H](C)CC)[C@@H](C)CC)[C@@H](C)CC (Octanoyl-GIIKKIIKKIIKKIS(βGal)-NH2) | 16 (≈ 32.2 µg/mL) | 4 (≈ 8.04 µg/mL) | 4 (≈ 8.04 µg/mL) | 4 (≈ 8.04 µg/mL) | -18.9 | 29.4 | 14.1 | 16 | – | Active | – | Active | – | 71 | 71 | Dose-Dependent Effect | – | – | – |
| CCCCCCCC(=O)NCC(=O)N[C@H](C(=O)N[C@H](C(=O)N[C@@H](CCCCN)C(=O)N[C@@H](CCCCN)C(=O)N[C@H](C(=O)N[C@H](C(=O)N[C@@H](CCCCN)C(=O)N[C@@H](CCCCN)C(=O)N[C@H](C(=O)N[C@@H](CO[C@@H]1O[C@H](CO)[C@H](O)[C@H](O)[C@H]1O)C(N)=O)[C@@H](C)CC)[C@@H](C)CC)[C@@H](C)CC)[C@@H](C)CC)[C@@H](C)CC (Octanoyl-GIIKKIIKKIS(βGal)-NH2) | 16 (≈ 24.4 µg/mL) | 12 (≈ 18.3 µg/mL) | 4 (≈ 6.11 µg/mL) | 4 (≈ 6.11 µg/mL) | -27.3 | -4.53 | 28 | 16 | – | – | – | Active | – | – | – | – | – | – | – |
| CCCCCCCCCCCCCCCC(=O)NCC(=O)N[C@H](C(=O)N[C@H](C(=O)N[C@@H](CCCCN)C(=O)N[C@@H](CCCCN)C(=O)N[C@H](C(=O)N[C@H](C(=O)N[C@@H](CCCCN)C(=O)N[C@@H](CCCCN)C(=O)N[C@H](C(=O)N[C@H](C(=O)N[C@@H](CCCCN)C(=O)N[C@@H](CCCCN)C(=O)N[C@H](C(N)=O)[C@@H](C)CC)[C@@H](C)CC)[C@@H](C)CC)[C@@H](C)CC)[C@@H](C)CC)[C@@H](C)CC)[C@@H](C)CC (Palmitoyl-GIIKKIIKKIIKKI-NH2) | 32 (≈ 60 µg/mL) | 32 (≈ 60 µg/mL) | 16 (≈ 30 µg/mL) | 32 (≈ 60 µg/mL) | – | – | – | 16 | – | – | – | Active | – | – | – | – | – | – | – |
| Ac-GIIKKIIKKIIKKI-NH2 | 32 | 12 | 4 | 12 | – | – | – | 16 | – | – | – | Active | – | – | – | – | – | – | – |
| H-GIIKKIIKKIIKKI-NH2 | 16 | 8 | 4 | 16 | – | – | – | 16 | – | – | – | Active | – | – | – | – | 45 | 46 | 59 |
